Test results published in paper PMC6270614 (Molecules, 2013).
Like-named read-outs stand apart in the source and are kept apart here.

What was measured:
[1] = biological target: CB1 receptor; conditions: cited from earlier work
[2] = biological target: CB2; design: method as in PMID 21885167; conditions: Figure 1; cited from earlier work
[3] = biological target: human cannabinoid CB1 receptor (Homo sapiens, UniProt P21554); assay: CB1 receptor radioligand ([3H]CP-55,940) displacement binding assay; conditions: for inhibition at 1 µM: read-out: displacement of [3H]CP-55,940 in the preliminary screen (printed in the CB1 Ki column)
Procedure: In all cases, Ki values were calculated by applying the Cheng-Prusoff equation [34] to the IC50 values (obtained by GraphPad, GraphPad Software, Inc., La Jolla, CA, USA) for the displacement of the bound radioligand by increasing concentrations of the test compounds (after three separate experiments for each compound).

[4] = test system: CB1; design: method as in PMID 21420860; conditions: Figure 1; read-out: IC50 cAMP (CB1); cited from earlier work
[5] = test system: CB2; design: method as in PMID 21420860; conditions: Figure 1; read-out: IC50 cAMP (CB2); cited from earlier work
[6] = test system: CB1; design: method as in PMID 21669533; conditions: Figure 1; cited from earlier work
[7] = test system: CB2; design: method as in PMID 21669533; conditions: Figure 1; cited from earlier work
[8] = CoMFA training and test set input, read-out: Experimental activity (pIC50) (converted)
[9] = CB1 (Ki, nM), displacement of 0.5 nM [3H]CP-55,940, means ± SEM, n = 3, Cheng-Prusoff from IC50
[10] = Experimental activity (pIC50, M), CoMFA training and test set input

Chain of human cannabinoid CB1 receptor (P21554 whole entry): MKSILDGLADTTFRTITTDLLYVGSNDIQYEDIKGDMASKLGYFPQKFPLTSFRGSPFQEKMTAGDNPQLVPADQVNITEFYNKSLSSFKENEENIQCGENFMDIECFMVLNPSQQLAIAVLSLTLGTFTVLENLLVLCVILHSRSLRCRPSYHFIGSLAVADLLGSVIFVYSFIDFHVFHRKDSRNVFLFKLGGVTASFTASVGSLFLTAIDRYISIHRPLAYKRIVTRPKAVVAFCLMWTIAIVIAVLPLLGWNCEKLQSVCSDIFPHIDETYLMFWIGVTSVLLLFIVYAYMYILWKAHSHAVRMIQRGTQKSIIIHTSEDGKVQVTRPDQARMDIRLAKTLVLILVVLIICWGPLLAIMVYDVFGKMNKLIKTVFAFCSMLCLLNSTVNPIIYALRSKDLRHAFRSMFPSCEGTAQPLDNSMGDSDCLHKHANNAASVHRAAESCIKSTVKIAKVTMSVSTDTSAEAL

| SMILES | IC50 [3, 8] [µM] | Ki ([3]; read-out: CB1 (Ki)) [nM] | melting point [°C] | also measured |
| --- | --- | --- | --- | --- |
| CCCCCn1c(C)c(C(=O)c2ccccc2I)c2ccccc21 [AM679] | – | – | – | Ki ([1]; non-selective CB1 and CB2 agonist): 0.0135 µM |
| CCCCCn1c(C)c(C(=O)c2cccc3ccccc23)c2cccnc21 [Abbott] | – | – | – | pKi (CB1) ([1]; Figure 1): 7.9; pKi (CB2) [2]: 7.3 |
| c1ccc2c(Cn3c(-c4ccncc4)nc4ccccc43)cccc2c1 [Compound 41, 1-(Naphthalen-1-ylmethyl)-2-(pyridin-4-yl)-1H-benzo[d]imidazole] | 0.274 | 149 ± 1.9 | 163.3 to 163.8 | – |
| Fc1ccc2c(c1)nc(-c1ccncc1)n2Cc1cccc2ccccc12 [Compound 42, 5-Fluoro-1-(naphthalen-1-ylmethyl)-2-(pyridin-4-yl)-1H-benzo[d]imidazole] | – | – | 151.5 to 152.5 | inhibition at 1 µM [3]: < 50% |
| Fc1ccc2nc(-c3ccncc3)n(Cc3cccc4ccccc34)c2c1 [Compound 43, 6-Fluoro-1-(naphthalen-1-ylmethyl)-2-(pyridin-4-yl)-1H-benzo[d]imidazole] | 1.12 | 614 ± 54.7 | 167.4 to 168.1 | – |
| Cc1cc2nc(-c3ccncc3)n(Cc3cccc4ccccc34)c2cc1C [Compound 44, 5,6-Dimethyl-1-(naphthalen-1-ylmethyl)-2-(pyridin-4-yl)-1H-benzo[d]imidazole] | – | – | 156.8 to 157.6 | Ki [3, 9]: 4.84 ± 2 nM; IC50 [3, 10]: 0.00887 µM; IC50 ([3]; IC50 (CB1 displacement), displacement of [3H]CP-55,940): < 0.01 µM |
| c1ccc(-c2nc3ccccc3n2Cc2ccc3ccccc3c2)nc1 [Compound 45, 1-(Naphthalen-2-ylmethyl)-2-(pyridin-2-yl)-1H-benzo[d]imidazole] | – | – | 150.7 to 151.8 | Ki [3, 9]: 31.8 ± 12 nM; IC50 [3, 10]: 0.0583 µM |
| Fc1ccc2c(c1)nc(-c1ccccn1)n2Cc1ccc2ccccc2c1 [Compound 46, 5-Fluoro-1-(naphthalen-2-ylmethyl)-2-(pyridin-2-yl)-1H-benzo[d]imidazole] | – | – | 165.7 to 166.4 | inhibition at 1 µM [3]: < 50% |
| Fc1ccc2nc(-c3ccccn3)n(Cc3ccc4ccccc4c3)c2c1 [Compound 47, 6-Fluoro-1-(naphthalen-2-ylmethyl)-2-(pyridin-2-yl)-1H-benzo[d]imidazole] | – | – | 170.5 to 171.3 | inhibition at 1 µM [3]: < 50% |
| c1cncc(-c2nc3ccccc3n2Cc2ccc3ccccc3c2)c1 [Compound 49, 1-(Naphthalen-2-ylmethyl)-2-(pyridin-3-yl)-1H-benzo[d]imidazole] | 3.38 | 1840 ± 79.8 | 146.3 to 147 | – |
| Fc1ccc2c(c1)nc(-c1cccnc1)n2Cc1ccc2ccccc2c1 [Compound 50, 5-Fluoro-1-(naphthalen-2-ylmethyl)-2-(pyridin-3-yl)-1H-benzo[d]imidazole] | 0.6 | 327 ± 60 | 175.7 to 176.8 | – |
| Cc1cc2nc(-c3cccnc3)n(Cc3ccc4ccccc4c3)c2cc1C [Compound 52, 5,6-Dimethyl-1-(naphthalen-2-ylmethyl)-2-(pyridin-3-yl)-1H-benzo[d]imidazole] | – | – | 138.5 to 139.5 | Ki [3, 9]: 140 ± 10.1 nM; IC50 [3, 10]: 0.256 µM |
| Fc1ccc2c(c1)nc(-c1ccncc1)n2Cc1ccc2ccccc2c1 [Compound 54, 5-Fluoro-1-(naphthalen-2-ylmethyl)-2-(pyridin-4-yl)-1H-benzo[d]imidazole] | – | – | 177.8 to 178.5 | Ki [3, 9]: 44.4 ± 5.5 nM; IC50 [3, 10]: 0.0815 µM |
| Fc1ccc2nc(-c3ccncc3)n(Cc3ccc4ccccc4c3)c2c1 [Compound 55, 6-Fluoro-1-(naphthalen-2-ylmethyl)-2-(pyridin-4-yl)-1H-benzo[d]imidazole] | 1.04 | 567 ± 7 | 163.5 to 164.1 | – |
| Cc1cc2nc(-c3ccncc3)n(Cc3ccc4ccccc4c3)c2cc1C [Compound 56, 5,6-Dimethyl-1-(naphthalen-2-ylmethyl)-2-(pyridin-4-yl)-1H-benzo[d]imidazole] | 0.442 | 241 ± 10 | 133.7 to 134.5 | – |
| O=C(c1cccc(Cl)c1Cl)c1nc(CN2CCC(F)(F)CC2)c2ccccn12 [Merck] | – | – | – | IC50 [4]: 0.09 µM; IC50 [5]: 0.0003 µM |
| CCS(=O)(=O)c1ccc2c(c1)nc(C(C)(C)C)n2C[C@@H]1CCCO1 [Pfizer] | – | – | – | EC50 [6]: > 10 µM; EC50 [7]: 0.0117 µM |
